EC50 data for seven compounds are collected here from patent publication US12351580B2, “NLRP3 modulators” (Innate Tumor Immunity, Inc., priority 2017, dated 2025).

SMILES strings stand for the structures.

The target of the test is T1, hNLRP3 (Homo sapiens, UniProt Q96P20).
T1 construct: THP-1 cells were purchased from the American Type Culture Collection; host or cells: THP-1 cells, PMA-differentiated
T1 sequence (Q96P20 whole entry): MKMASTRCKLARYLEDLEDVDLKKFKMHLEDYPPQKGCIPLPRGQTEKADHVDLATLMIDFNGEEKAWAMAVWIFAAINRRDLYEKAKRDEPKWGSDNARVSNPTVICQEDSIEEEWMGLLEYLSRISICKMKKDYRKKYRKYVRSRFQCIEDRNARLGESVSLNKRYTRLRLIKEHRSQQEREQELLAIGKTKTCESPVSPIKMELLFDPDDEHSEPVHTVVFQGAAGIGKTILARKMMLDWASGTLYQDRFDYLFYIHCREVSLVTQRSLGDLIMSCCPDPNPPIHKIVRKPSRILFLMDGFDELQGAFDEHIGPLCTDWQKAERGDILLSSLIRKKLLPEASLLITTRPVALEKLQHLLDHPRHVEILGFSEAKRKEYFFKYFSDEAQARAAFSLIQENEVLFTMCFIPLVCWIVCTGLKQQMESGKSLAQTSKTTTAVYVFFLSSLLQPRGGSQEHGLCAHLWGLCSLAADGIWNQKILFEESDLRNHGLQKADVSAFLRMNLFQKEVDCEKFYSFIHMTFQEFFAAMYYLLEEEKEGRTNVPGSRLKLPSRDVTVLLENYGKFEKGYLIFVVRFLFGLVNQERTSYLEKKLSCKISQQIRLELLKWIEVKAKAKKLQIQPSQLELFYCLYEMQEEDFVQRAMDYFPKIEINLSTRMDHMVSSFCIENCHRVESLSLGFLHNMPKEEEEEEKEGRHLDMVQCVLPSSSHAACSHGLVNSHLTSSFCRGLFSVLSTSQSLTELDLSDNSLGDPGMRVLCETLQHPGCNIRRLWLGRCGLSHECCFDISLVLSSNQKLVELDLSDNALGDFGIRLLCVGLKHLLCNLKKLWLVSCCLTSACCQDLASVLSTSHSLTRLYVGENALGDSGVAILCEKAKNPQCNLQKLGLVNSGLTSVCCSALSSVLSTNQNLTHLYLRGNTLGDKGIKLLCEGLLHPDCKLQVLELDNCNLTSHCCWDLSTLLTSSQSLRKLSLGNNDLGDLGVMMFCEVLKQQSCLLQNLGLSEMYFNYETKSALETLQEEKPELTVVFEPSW
The experiment in a line: Measurement of IL-1β production in PMA-differentiated THP-1 cells (hNLRP3 agonist; ELISA, alternative and hTRF procedures). Type of test: cell-based. Put shortly:
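Supernatant IL-1β was quantified by ELISA in two procedures and by hTRF (kit antibodies at 1:40) in a third. THP-1 cells were first differentiated with PMA ([…] for 24 h; 20 μg/ml overnight; 50 ng/ml overnight), then incubated in 2% FBS RPMI with compounds for 4 h, 2 h and 2 h, respectively, at 1% DMSO or a 10 μM top concentration.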
In the case of `CCN(Cc1nc2c(N)nc3cc(-n4cccn4)ccc3c2n1CCO)C(C)=O` [Compound 476, N-{[4-amino-1-(2-hydroxyethyl)-7-(1H-pyrazol-1-yl)-1H-imidazo[4,5-c]quinolin-2-yl]methyl}-N-ethylacetamide], a half-maximal effect (EC50) was put at 6100 nM. For `CCNCc1nc2c(N)nc3cc(-n4cccn4)ccc3c2n1CCO` [Compound 477, 2-[4-amino-2-[(ethylamino)methyl]-7-(1H-pyrazol-1-yl)-1H-imidazo[4,5-c]quinolin-l-yl]ethan-1-ol] the value was 6300 nM. For the compound `CCC(=O)N(CC)Cc1nc2c(N)nc3cc(-n4cccn4)ccc3c2n1CCO` [Compound 478, N-{[4-amino-1-(2-hydroxyethyl)-7-(1H-pyrazol-1-yl)-1H-imidazo[4,5-c]quinolin-2-yl]methyl}-N-ethylpropanamide], the EC50 was determined as 3700 nM. `CCN(Cc1nc2c(N)nc3cc(-n4cccn4)ccc3c2n1CC)C(C)=O` [Compound 479, N-{[4-amino-1-ethyl-7-(1H-pyrazol-1-yl)-1H-imidazo[4,5-c]quinolin-2-yl]methyl}-N-ethylacetamide]: it took 670 nM to reach a half-maximal effect (EC50). For `CCC(=O)N(CC)Cc1nc2c(N)nc3cc(-c4cccs4)ccc3c2n1CC` [Compound 480, N-{[4-amino-1-ethyl-7-(thiophen-2-yl)-1H-imidazo[4,5-c]quinolin-2-yl]methyl}-N-ethylpropanamide] the value was 1900 nM. The result for `CCC(=O)N(CC)Cc1nc2c(N)nc3cc(-n4cccn4)ccc3c2n1CC` [Compound 481, N-{[4-amino-1-ethyl-7-(1H-pyrazol-1-yl)-1H-imidazo[4,5-c]quinolin-2-yl]methyl}-N-ethylpropanamide] reads 630 nM; that for `CCN(Cc1nc2c(N)nc3cc(-c4cccs4)ccc3c2n1CCO)C(C)=O` [Compound 482, N-{[4-amino-1-(2-hydroxyethyl)-7-(thiophen-2-yl)-1H-imidazo[4,5-c]quinolin-2-yl]methyl}-N-ethylacetamide], 430 nM.
